The results in this text go back to publication PMC9610492, “BRD9 Inhibition by Natural Polyphenols Targets DNA Damage/Repair and Apoptosis in Human Colon Cancer Cells” (Nutrients, 2022).

The inhibition is the change of the read-out against control, counted positive when it falls. Read a low inhibition as a weak effect. By Kd is commonly meant the equilibrium constant for the complex coming apart. Low values mean tighter binding, high ones weaker binding.

Holding throughout (format): binding
Experiment [1] addresses T1, BRD9 (bromodomain-containing protein 9) (Homo sapiens, UniProt Q9H8M2).
T1 sequence (Q9H8M2 1-597): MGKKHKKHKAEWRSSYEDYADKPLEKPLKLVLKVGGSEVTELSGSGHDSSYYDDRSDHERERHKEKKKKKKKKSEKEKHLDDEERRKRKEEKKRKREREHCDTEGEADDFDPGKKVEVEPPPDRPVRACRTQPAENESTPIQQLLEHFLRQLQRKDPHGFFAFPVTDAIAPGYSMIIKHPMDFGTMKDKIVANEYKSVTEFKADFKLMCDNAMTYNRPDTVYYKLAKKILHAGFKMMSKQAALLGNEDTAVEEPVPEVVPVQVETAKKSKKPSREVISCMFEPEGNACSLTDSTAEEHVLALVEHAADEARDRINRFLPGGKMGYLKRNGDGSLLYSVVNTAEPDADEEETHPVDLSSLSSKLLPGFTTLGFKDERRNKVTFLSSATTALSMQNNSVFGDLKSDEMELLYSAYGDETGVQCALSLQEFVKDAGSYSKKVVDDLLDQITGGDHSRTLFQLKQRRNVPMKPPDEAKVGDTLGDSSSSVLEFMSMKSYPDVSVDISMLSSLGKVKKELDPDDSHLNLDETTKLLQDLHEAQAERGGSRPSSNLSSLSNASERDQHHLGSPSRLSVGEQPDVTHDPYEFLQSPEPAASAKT
The experiment is described as follows: BROMOscan at […], blinded positive control.

Experiment [2] concerns the target T1, BRD9 (bromodomain-containing protein 9). The experiment is described as follows: ITC with purified BRD9 (N = […]); BROMOscan […] inhibition at […].
Experiment [3] has the same target. The experiment is described as above. This is another data set of the same source.

Read-outs that look alike come from different tables or passages of the source.

In the case of `CCn1cc(-c2cccc(C(F)(F)F)c2)c2sc(C(=N)NC3CCS(=O)(=O)CC3)cc2c1=O` [iBRD9], in experiment [1], the inhibition at 10 µM stood at 99%. On to `O=C(CCc1ccc(O)c(O)c1)c1c(O)cc(O)c([C@@H]2O[C@H](CO)[C@@H](O)[C@H](O)[C@H]2O)c1O` [Aspalathin], for which the Kd in experiment [2] is 20 µM.

In turn, `O=c1cc(-c2ccc(O)c(O)c2)oc2c([C@@H]3O[C@H](CO)[C@@H](O)[C@H](O)[C@H]3O)c(O)cc(O)c12` [Orientin] returned a Kd in experiment [3] of 20 µM.
